Experimental data from ChEMBL document CHEMBL3045673, “Synthesis of some novel 2-substituted benzoxazoles as anticancer, antifungal, and antimicrobial agents” (2008).
Calls of active or inactive are those of the source. The rule behind the calls is not given here.

Legend:
MCF7 = test: Cytotoxicity against Homo sapiens (human) MCF7 cells by MTT assay; type: functional, cell-based
Klebsiella pneumoniae = test: Antibacterial activity against Klebsiella pneumoniae at 10 ug/ml after 24 hr by disk diffusion method; type: functional; settings: read-out: DIZ
HepG2 = test: Cytotoxicity against Homo sapiens (human) HepG2 cells by MTT assay; type: functional, cell-based
Staphylococcus aureus = test: Antibacterial activity against Staphylococcus aureus at 10 ug/ml after 24 hr by disk diffusion method; type: functional; settings: read-out: DIZ
WiDr = test: Cytotoxicity against Homo sapiens (human) WiDr cells by MTT assay; type: functional, cell-based
Pseudomonas aeruginosa = test: Antibacterial activity against Pseudomonas aeruginosa at 10 ug/ml after 24 hr by disk diffusion method; type: functional; settings: read-out: DIZ
HeLa = test: Cytotoxicity against Homo sapiens (human) HeLa cells by MTT assay; type: functional, cell-based
Aspergillus flavus = test: Antifungal activity against Aspergillus flavus at 50 ug/ml after 48 hr by agar plate diffusion method; type: functional
Aspergillus niger = test: Antifungal activity against Aspergillus niger at 50 ug/ml after 48 hr by agar plate diffusion method; type: functional

SMILES | Activity (MCF7) | zone of inhibition at 10 µg/mL (Klebsiella pneumoniae) | Activity (HepG2) | zone of inhibition at 10 µg/mL (Staphylococcus aureus) | Activity (WiDr) | zone of inhibition at 10 µg/mL (Pseudomonas aeruginosa) | Activity (HeLa) | inhibition at 50 µg/mL (Aspergillus flavus) | inhibition at 50 µg/mL (Aspergillus niger)
N#C/C(=N\Nc1ccccc1)c1nc2cc(Cl)ccc2o1 | inactive | 10 mm | Active | 10 mm | inactive | 10 mm | Active | – | –
COc1ccc(/C=C(\C#N)c2nc3cc(Cl)ccc3o2)cc1 | Active | 10 mm | Active | 5 mm | Active | 10 mm | Active | 65% | 65%
N#C/C(=C\c1ccc(O)cc1)c1nc2cc(Cl)ccc2o1 | inactive | 10 mm | Active | 10 mm | inactive | 10 mm | Active | 60% | 50%
COc1cc(/C=C(\C#N)c2nc3cc(Cl)ccc3o2)cc(OC)c1OC | Active | 10 mm | Active | 15 mm | Active | 15 mm | Active | 85% | 80%
COc1cc(/C=C(\C#N)c2nc3cc(F)ccc3o2)cc(OC)c1OC | Active | 15 mm | Active | 20 mm | Active | 20 mm | Active | 90% | 95%
COc1ccc(N/N=C(\C#N)c2nc3cc(Cl)ccc3o2)cc1 | Active | 5 mm | Active | 10 mm | Active | 5 mm | Active | 50% | 65%
N#C/C(=N\Nc1ccc(Br)cc1)c1nc2cc(Cl)ccc2o1 | Active | 10 mm | Active | 10 mm | inactive | 10 mm | Active | – | –
N#C/C(=N\Nc1ccc(Cl)cc1)c1nc2cc(Cl)ccc2o1 | Active | 10 mm | inactive | 5 mm | inactive | 10 mm | inactive | 65% | 70%
N#CC(=C1CCCC1)c1nc2cc(Cl)ccc2o1 | Active | 10 mm | Active | 15 mm | Active | 10 mm | Active | 60% | 75%
N#C/C(=C\c1ccccc1)c1nc2cc(Cl)ccc2o1 | Active | 10 mm | inactive | 10 mm | inactive | 10 mm | inactive | 60% | 65%
N#CC(=C1CCCCC1)c1nc2cc(Cl)ccc2o1 | inactive | 5 mm | Active | 10 mm | Active | 10 mm | Active | 75% | 60%
